Data taken from US4689218A, “Effervescent composition with analgesic activity” (priority 1985, dated 1987).
“Also recorded” adds a separate entry of the source.

Assays:
[1] = system: oral and gastric mucosa; details: oral administration (b7), mucosa of the mouth, aqueous suspension (b9); cited from earlier work
[2] = oral route, tablet; cited from earlier work
[3] = cited from earlier work
[4] = Stability (degradation, colour) of lysine-containing preparation; assay type: physicochemical; details: larger amounts of lysine (more than 30-40% of arginine substituted)

SMILES	Irritability of mucosa [1]	Kinetics of absorption [2]	Solubility in water [3]	Degradation / brown colour of the pharmaceutical preparation [4]
CC(C)Cc1ccc(C(C)C(=O)O)cc1 (stereo not shown) [Ibuprofen, 2-(4-isobutyl-phenyl)-propionic acid]	some irritability of gastric mucosa; also recorded: irritant for the mucosa of the mouth	relatively slow kinetics of absorption	very low solubility in water	–
NCCCC[C@H](N)C(=O)O [lysine]	–	–	–	easily degrades making of a brown colour the pharmaceutical preparation
